Measured values as given in patent US20190209568A1, “METHOD OF PREVENTING OR TREATING HEARING LOSS” (SUPPORT-VENTURE GMBH, priority 2016, published 2019).

Tested on: auditory hair cells of organ of Corti (OC) explants
Assay: Protection of auditory hair cells from gentamicin-induced loss in organ of Corti explant culture (hair cell counting, basal turn)
Assay type: cell-based, C57bl/6j mice
Conditions: for hair cells lost / protection from loss of hair cells / loss of hair cells: 24 hours; for protection against gentamicin-induced loss of hair cells (in words): Example 1: 5 μM pioglitazone, 30 μM pamapimod, or both, with gentamicin, 24 hr in culture; for loss of hair cells: p5 mouse OC explants, basal turn
Description: All animal procedures were carried out according to protocols approved by the Kantonales Veterinäramt, Basel, Switzerland. Postnatal day 5 (p5) C57bl/6j were used for the studies. Studies were performed in vitro, using organ of Corti (OC) explants from p5 animals. Animals were sacrificed and the cochleae carefully dissected to separate the organ of Corti from the spiral ganglion, stria vascularis and Reissner's membrane [Sobkowicz H M, Loftus J M, Slapnick S M. Acta Otolaryngol Suppl. 1993; 502:3-36].
OCs were harvested and then placed in culture medium [Dulbecco's Modified Eagle Medium supplemented with 10% FCS, 25 mM HEPES and 30 U/ml penicillin (Invitrogen, Carlsbad, 20 CA, USA)] and incubated for 24 hours at 37° C. in an atmosphere of 95% O2/5% CO2. After that period, the culture medium was replaced with fresh medium containing no compound or 50 μM gentamicin alone or 50 μM gentamicin with either 5 μM pioglitazone, 30 μM pamapimod, or 5 μM pioglitazone+30 μM pamapimod, and incubated for a further 24 hours at 37° C. Ten OC explants were used for each treatment condition.
After incubation with compounds, the OCs were fixed in 4% paraformaldehyde, washed and then stained with a fluorescein (FITC)-conjugated phalloidin to detect inner and outer hair cells. After staining, the OCs were visualized and photographed using a fluorescence microscope (Olympus FSX100). Auditory hair cells were quantified for the basal turn of each organ of Corti in 3 fields corresponding to 80 hair cells each. The average values for the three fields were then averaged for the 10 OCs used for each condition. Significant differences between treatment groups in numbers of hair cells were determined using analysis of variance (ANOVA) followed by the least significant difference (LSD) post-hoc test (Stat View 5.0). Differences associated with P values of less than 0.05 were considered to be statistically significant. All data are presented as mean±SD.
OCs were harvested and then placed in culture medium [Dulbecco's Modified Eagle Medium supplemented with 10% FCS, 25 mM HEPES and 30 U/ml penicillin (Invitrogen, Carlsbad, 20 CA, USA)] and incubated for 24 hours at 37° C. in an atmosphere of 95% O2/5% CO2. After that period, the culture medium was replaced with fresh medium containing no compound or 100 µM gentamicin alone or 100 μM gentamicin with either 1 μM pioglitazone, 1 μM pamapimod, or 1 μM pioglitazone+1 μM pamapimod, and incubated for a further 24 hours at 37° C. The gentamicin concentration of 100 μM was determined as that concentration that leads to 50% loss of hair cells. Batch to batch variation in the activity of gentamicin requires that the concentration used for specific experiments leading to 50% hair cell loss be predefined in pilot experiments for each batch. Ten OC explants were used for each treatment condition.

Compound | hair cells lost (Example 1, FIG. 1: 30 μM pamapimod (micronized, Dv50=3 μm) with 50 μM gentamicin) | protection against gentamicin-induced loss of hair cells (in words) | protection from loss of hair cells (Example 2, FIG. 2: 1 μM pamapimod with 100 μM gentamicin) | hair cells lost (Example 1, FIG. 1: 5 μM pioglitazone (micronized, Dv50=4 μm) with 50 μM gentamicin) | protection from loss of hair cells (Example 2, FIG. 2: 1 μM pioglitazone with 100 μM gentamicin) | loss of hair cells (Example 1, FIG. 1: 50 μM gentamicin alone) | loss of hair cells (Example 2, FIG. 2: 100 μM gentamicin alone)
Cn1c(=O)c(Oc2ccc(F)cc2F)cc2cnc(NC(CCO)CCO)nc21 [pamapimod, 6-(2,4-Difluorophenoxy)-2-[3-hydroxy-1-(2-hydroxyethyl)-propylamino]-8-methyl-8H-pyrido[2,3-d]pyrimidin-7-one] | approximately 20% | partially prevented the loss of hair cells | approximately 30% |  |  |  | 
CCc1ccc(CCOc2ccc(CC3SC(=O)NC3=O)cc2)nc1 (centres unmarked) [pioglitazone] |  | partially prevented the loss of hair cells |  | approximately 20% | approximately 40% |  | 
gentamicin |  |  |  |  |  | approximately 50% | approximately 50%
